# Assay results published in US4098798A, “Adriamycins, process for their preparation and uses thereof” (Societa' Farmaceutici Italia S.p.A., priority 1974, dated 1978).
# Like-named read-outs stand apart in the source and are kept apart here.
# Experiments:
# B-subtilis = assay: inhibition zones on agar-B-subtilis plates, paper disc technique; format: cell-based; settings: hydrochlorides, read-out: inhibition zone diameter; for zone of inhibition at 5 µg/disc: 5 μg; for zone of inhibition at 10 µg/disc: 10 μg; for zone of inhibition at 15 µg/disc: 15 μg; for zone of inhibition at 20 µg/disc: 20 μg
# Ascites Sarcoma 180 = assay: Action on Ascites Sarcoma 180 in mice; format: in vivo, mice (Swiss CD 1); settings: for Average Survival time: one day after inoculation, untreated = 100%
# Method: The tests were carried out on groups of 10 mice (Swiss CD 1). The compounds under examination were administered intraperitoneally in varying doses to the test animals one day after intraperitoneal inoculation with 1 × 10^6 tumor cells per animal. The average survival time is given in Table 1 as a percentage of the survival time of untreated animals, which is arbitrarily designated as 100%. Also given in Table 1 are the number of long term survivors.
# HeLa cells = assay: Cloning Efficiency of Hela cells in vitro; format: cell-based; settings: for IC50: Homo sapiens, HeLa, 50% inhibition of colonies
# Method: After treatment for 2,8 or 24 hours, HeLa cells were seeded (200 cells per plate) and the number of colonies determined 8 days later.
# The ID50 represents the dose which gives a 50% of inhibition of colonies.
# MSV = assay: Activity on MSV Production, focus assay; format: cell-based, Moloney Sarcoma Virus; settings: 0.05 γ/ml, 3 days; control 4.7 × 10^4
# Method: MSV infected cultures were treated for 3 days, and the virus yields were determined in the cell and supernatant medium by focus assay in the presence of leukemia virus.
# [1] = tested on: Moloney Sarcoma Virus (MSV); assay: MSV foci formation in infected mouse embryo fibroblast cultures (antiviral action); format: cell-based; settings: 72 h, treatment of 3 days, read-out: Antiviral Action ID50
# Method: (§1) The test compounds were evaluated on mouse embryo fibroblast cultures infected with MSV and on similar uninfected cultures. After a treatment of 3 days, the inhibiting doses (ID50) were evaluated on cell proliferation in uninfected cultures (cytotoxic action) and on MSV foci formation in infected cultures (antiviral action).
# [2] = cell proliferation in uninfected mouse embryo fibroblast cultures (cytotoxic action); format: cell-based; settings: mouse embryo fibroblasts, treatment of 3 days, read-out: Cytotoxic Action ID50
# Method: as §1
compound,measurement,setting,value
"COc1cccc2c1C(=O)c1c(O)c3c(c(O)c1C2=O)C[C@@](O)(C(=O)CO)C[C@@H]3O[C@@H]1C[C@H](N)[C@@H](O)[C@H](C)O1 [4'-epi-adriamycin (β-anomer), 7-0-(3'-amino-2',3',6'-trideoxy-β-L-arabinohexopyranosyl)-adriamycinone]",zone of inhibition at 5 µg/disc,B-subtilis,15 mm
same,zone of inhibition at 10 µg/disc,B-subtilis,15.5 mm
same,zone of inhibition at 15 µg/disc,B-subtilis,16 mm
same,zone of inhibition at 20 µg/disc,B-subtilis,17 mm
"COc1cccc2c1C(=O)c1c(O)c3c(c(O)c1C2=O)C[C@@](O)(C(=O)CO)C[C@@H]3O[C@H]1C[C@H](N)[C@@H](O)[C@H](C)O1 [4'-Epi-adriamycin (α-anomer), 7-0-(3'-amino-2',3',6'-trideoxy-α-L-arabinohexopyranosyl)-adriamycinone]",Long Term Survivors (after 60 days),Ascites Sarcoma 180; 0.5 mg/Kg i.p.,0/10
same,Average Survival time,Ascites Sarcoma 180; 0.5 mg/Kg i.p.,135%
same,Long Term Survivors (after 60 days),Ascites Sarcoma 180; 2 mg/Kg i.p.,0/10
same,Average Survival time,Ascites Sarcoma 180; 2 mg/Kg i.p.,184%
same,Long Term Survivors (after 60 days),Ascites Sarcoma 180; 10 mg/Kg i.p.,1/8
same,Average Survival time,Ascites Sarcoma 180; 10 mg/Kg i.p.,234%
same,IC50,"HeLa cells; Table 7, 2h treatment, read-out: DI50 (the source's name)",0.85 µg/mL
same,IC50,"HeLa cells; Table 7, 8h treatment, read-out: DI50 (the source's name)",0.7 µg/mL
same,IC50,"HeLa cells; Table 7, 24h treatment, read-out: DI50 (the source's name)",0.36 µg/mL
same,IC50,"HeLa cells; Table 8, 2h treatment, read-out: DI 50 (the source's name)",5 µg/mL
same,IC50,"HeLa cells; Table 8, 8h treatment, read-out: DI 50 (the source's name)",0.2 µg/mL
same,IC50,"HeLa cells; Table 8, 24h treatment, read-out: DI 50 (the source's name)",0.2 µg/mL
same,Average Number of Colonies,"HeLa cells; Table 7, 0.1 μg/ml, 8h, control 125",158
same,Average Number of Colonies,"HeLa cells; Table 7, 0.1 μg/ml, 24h, control 223",216
same,Average Number of Colonies,"HeLa cells; Table 7, 0.25 μg/ml, 8h, control 125",150
same,Average Number of Colonies,"HeLa cells; Table 7, 0.25 μg/ml, 24h, control 223",199
same,Average Number of Colonies,"HeLa cells; Table 7, 0.5 μg/ml, 8h, control 125",92
same,Average Number of Colonies,"HeLa cells; Table 7, 0.5 μg/ml, 24h, control 223",52
same,Average Number of Colonies,"HeLa cells; Table 7, 1 μg/ml, 2h, control 132",57
same,Average Number of Colonies,"HeLa cells; Table 7, 1 μg/ml, 8h, control 125",36
same,Average Number of Colonies,"HeLa cells; Table 7, 1 μg/ml, 24h, control 223",29
same,Average Number of Colonies,"HeLa cells; Table 8, 0.125 μg/ml, 2h, control 156",245
same,Average Number of Colonies,"HeLa cells; Table 8, 0.125 μg/ml, 8h, control 189",170
same,Average Number of Colonies,"HeLa cells; Table 8, 0.25 μg/ml, 8h, control 189",43
same,Average Number of Colonies,"HeLa cells; Table 8, 0.25 μg/ml, 24h, control 136",46
same,Average Number of Colonies,"HeLa cells; Table 8, 0.5 μg/ml, 2h, control 156",130
same,Average Number of Colonies,"HeLa cells; Table 8, 0.5 μg/ml, 8h, control 189",45
same,Average Number of Colonies,"HeLa cells; Table 8, 0.5 μg/ml, 24h, control 136",38
same,Average Number of Colonies,"HeLa cells; Table 8, 1 μg/ml, 8h, control 189",27
same,Average Number of Colonies,"HeLa cells; Table 8, 1 μg/ml, 24h, control 136",17
same,zone of inhibition at 5 µg/disc,B-subtilis,19 mm
same,zone of inhibition at 10 µg/disc,B-subtilis,21 mm
same,zone of inhibition at 15 µg/disc,B-subtilis,22 mm
same,zone of inhibition at 20 µg/disc,B-subtilis,23 mm
COc1cccc2c1C(=O)c1c(O)c3c(c(O)c1C2=O)CC(O)(C(=O)CO)CC3OC1CC(N)C(O)C(C)O1 (stereo not drawn) [4'-Epi-adriamycin],virus yield (FFU/ml),MSV,4 × 10^2 FFU/ml
same,IC50,[1],> 0.006 µg/mL
same,CC50 at 72 h,[2],0.01 µg/mL
